Columns and labels:
mouse [1] = conditions: Subchronic oral toxicity in rodents, b6c3f1, Feed, dose end: 90 day, group: systemic
dog [2] = conditions: Sub-acute repeat dose toxicity, beagle, Oral, Feed, group: systemic
rat [3] = conditions: Subchronic oral toxicity in rodents, sprague dawley, Feed, dose end: 13 week, group: systemic
rat [4] = conditions: Combined chronic toxicity/carcinogenicity, sprague dawley, Oral, Feed, dose end: 24 month
dog [5] = conditions: Chronic toxicity, beagle, Oral, Capsule, dose end: 52 week
mouse [6] = conditions: Carcinogenicity, cd1, Oral, Feed, dose end: 18 month, group: systemic
rat [7] = conditions: Prenatal developmental toxicity study, sprague dawley, Oral, Gavage/Intubation, dose end: 15 GD
[8] = systemic / clinical chemistry / alanine aminotransferase (alt/sgpt) / alanine aminotransferase (alt/sgpt) + systemic / clinical chemistry / …
[9] = systemic / in life observation / body weight / body weight + systemic / in life observation / food consumption / food consumption + systemic…
[10] = group: cholinesterase, cholinesterase / cholinesterase / cholinesterase / plasma cholinesterase (che)
[11] = group: systemic, systemic / hematology / erythrocyte (rbc) count differential / erythrocyte (rbc) + systemic / hematology / hematocrit (hct) / hematocrit (…
[12] = group: cholinesterase, cholinesterase / cholinesterase / cholinesterase / plasma cholinesterase (che) + cholinesterase / cholinesterase / cholinesterase / brain …
[13] = group: systemic, systemic / in life observation / clinical signs / tremors + systemic / in life observation / clinical signs / vomitting
[14] = systemic / in life observation / body weight / body weight + systemic / in life observation / food consumption / food consumption
[15] = group: developmental, developmental / developmental malformation / bone / incomplete ossification
[16] = group: developmental, developmental / developmental malformation / bone / incomplete ossification + developmental / developmental malformation / bone / …
[17] = group: maternal, systemic / in life observation / food consumption / food consumption + systemic / in life observation / body weight / body weight + systemic…

Molecule `CC(C)[C@H](C(=O)O[C@H](C#N)c1cccc(Oc2ccccc2)c1)c1ccc(Cl)cc1` [Esfenvalerate] has an LOAEL (mouse [1]; [8]) of 106 mg/kg/day, an NEL (mouse [1]; [8]) of 10.5 mg/kg/day and an NOAEL (mouse [1]; [8]) of 30.5 mg/kg/day. For the same molecule, the LEL (mouse [1]; systemic / clinical chemistry / glucose / glucose + systemic / clinical chemistry / triglycerides / triglycerides) was 30.5 mg/kg/day, the LOAEL (dog [2]; systemic / in life observation / body weight / body weight + systemic / in life observation / clinical signs / ataxia) was 7.5 mg/kg/day and the LEL (dog [2]; systemic / in life observation / body weight / body weight + systemic / in life observation / clinical signs / ataxia + systemic / in life …) was 7.5 mg/kg/day. The NEL (dog [2]; [9]) was 2.5 mg/kg/day, the NOAEL (dog [2]; [9]) was 2.5 mg/kg/day and the LOAEL (rat [3]; systemic / in life observation / clinical signs / jerking movements) was 7.5 mg/kg/day. For the same molecule, the NOAEL (rat [3]; systemic / in life observation / clinical signs / jerking movements + systemic / in life observation / body weight / body weight gain + …) was 2.5 mg/kg/day, the LEL (rat [3]; systemic / in life observation / clinical signs / jerking movements + systemic / organ weight / kidney / relative to body weight) was 7.5 mg/kg/day and the NEL (rat [3]; systemic / organ weight / kidney / relative to body weight + systemic / hematology / erythrocyte (rbc) count differential / erythrocyte (rbc…) was 2.5 mg/kg/day.
Work on `CCOP(=S)(OCC)SCSCC` [Phorate] yielded an LEL (rat [4]; [10]) of 0.05 mg/kg/day, an LOAEL (rat [4]; [10]) of 0.05 mg/kg/day and an NEL (rat [4]; [10]) of less than 0.05 mg/kg/day. It also gave an NOAEL (rat [4]; [10]) of less than 0.05 mg/kg/day, an LEL (rat [4]; [11]) of 0.3 mg/kg/day and an LOAEL (rat [4]; [11]) greater than 0.3 mg/kg/day. The NEL (rat [4]; [11]) was 0.15 mg/kg/day, the NOAEL (rat [4]; [11]) was no less than 0.3 mg/kg/day and the LEL (dog [5]; [10]) was 0.05 mg/kg/day. The LOAEL (dog [5]; [10]) was 0.05 mg/kg/day, the NEL (dog [5]; [12]) was 0.01 mg/kg/day and the NOAEL (dog [5]; [12]) was 0.01 mg/kg/day. The LOAEL (dog [5]; group: systemic, systemic / in life observation / clinical signs / tremors + systemic / in life observation / body weight / body weight gain) was 0.25 mg/kg/day, the NEL (dog [5]; [13]) was 0.005 mg/kg/day and the NOAEL (dog [5]; [13]) was 0.05 mg/kg/day. It also gave an LEL (dog [5]; group: systemic, systemic / in life observation / clinical signs / vomitting) of 0.01 mg/kg/day, an LOAEL (mouse [6]; systemic / in life observation / body weight / body weight) of 0.8 mg/kg/day and an LEL (mouse [6]; [14]) of 0.8 mg/kg/day. For the same molecule, the NEL (mouse [6]; [14]) was 0.4 mg/kg/day, the NOAEL (mouse [6]; [14]) was 0.4 mg/kg/day and the LEL (rat [7]; [15]) was 0.1 mg/kg/day. For the same molecule, the NEL (rat [7]; [15]) was less than 0.1 mg/kg/day, the LOAEL (rat [7]; [16]) was 0.4 mg/kg/day and the NOAEL (rat [7]; [16]) was 0.3 mg/kg/day. The LOAEL (rat [7]; group: maternal, systemic / in life observation / food consumption / food consumption) was 0.2 mg/kg/day, the LEL (rat [7]; [17]) was 0.4 mg/kg/day and the NEL (rat [7]; [17]) was 0.3 mg/kg/day. For the same molecule, the NOAEL (rat [7]; [17]) was 0.1 mg/kg/day.
